Assay results as given in PMC10141604, “Small-Molecule Inhibition of Androgen Receptor Dimerization as a Strategy against Prostate Cancer” (ACS Central Science, 2023).

Columns and labels:
Assay type in all cases: cell-based
LNCaP cells = test: Clonogenic (colony forming) assay, LNCaP; settings: 2 and 20 μM, 16-18 days
Method: 1.5× 10^3 cells/well of LNCaP or 22RV1 were seeded into a 6-well plate. After 1 day
incubation, the medium of each well was removed and washed thrice using PBS. […]

[1] = system: human gastric epithelial cell (GES-1); test: MTT cell viability assay, GES-1; settings: 72 h
Method: (§1) 3-(4,5-dimethythiazol-2-yl)-2,5-diphenyl-2-H-tetrazolium bromide (MTT) colorimetric assay was employed to investigate cell viability. Cells were seeded into 96-well plates with 2-5× 10^3 cells per well (5× 10^3 cells/well for LNCaP, 22RV1, NIH-3T3, GES-1, Chang, […]
(§2) NCI-H1299, U2OS, U87) for 1 day incubation at 37 °C. Then, the cells were treated with various concentrations of compounds (22.86 nM - 50 μM) and incubated for 72 h. Then, 10 μl MTT (5 mg/ml) was added into each well and incubated for 4 h. Afterwards, 100 μl of triplex 10% SDS-0.1% HCl-phosophate-buffered saline (PBS) solutions was added into each well and incubated for overnight. The absorbance at 570 nm was measured (Eon, Bioteck, Winooski, VT). […]

PR = biological target: T1, PR (Homo sapiens, UniProt P06401); test: Luciferase reporter assay for PR (PC3 cells); settings: 10 μM, 10 nM progesterone
T1 construct: host or cells: PC3
T1 sequence (P06401 1-933): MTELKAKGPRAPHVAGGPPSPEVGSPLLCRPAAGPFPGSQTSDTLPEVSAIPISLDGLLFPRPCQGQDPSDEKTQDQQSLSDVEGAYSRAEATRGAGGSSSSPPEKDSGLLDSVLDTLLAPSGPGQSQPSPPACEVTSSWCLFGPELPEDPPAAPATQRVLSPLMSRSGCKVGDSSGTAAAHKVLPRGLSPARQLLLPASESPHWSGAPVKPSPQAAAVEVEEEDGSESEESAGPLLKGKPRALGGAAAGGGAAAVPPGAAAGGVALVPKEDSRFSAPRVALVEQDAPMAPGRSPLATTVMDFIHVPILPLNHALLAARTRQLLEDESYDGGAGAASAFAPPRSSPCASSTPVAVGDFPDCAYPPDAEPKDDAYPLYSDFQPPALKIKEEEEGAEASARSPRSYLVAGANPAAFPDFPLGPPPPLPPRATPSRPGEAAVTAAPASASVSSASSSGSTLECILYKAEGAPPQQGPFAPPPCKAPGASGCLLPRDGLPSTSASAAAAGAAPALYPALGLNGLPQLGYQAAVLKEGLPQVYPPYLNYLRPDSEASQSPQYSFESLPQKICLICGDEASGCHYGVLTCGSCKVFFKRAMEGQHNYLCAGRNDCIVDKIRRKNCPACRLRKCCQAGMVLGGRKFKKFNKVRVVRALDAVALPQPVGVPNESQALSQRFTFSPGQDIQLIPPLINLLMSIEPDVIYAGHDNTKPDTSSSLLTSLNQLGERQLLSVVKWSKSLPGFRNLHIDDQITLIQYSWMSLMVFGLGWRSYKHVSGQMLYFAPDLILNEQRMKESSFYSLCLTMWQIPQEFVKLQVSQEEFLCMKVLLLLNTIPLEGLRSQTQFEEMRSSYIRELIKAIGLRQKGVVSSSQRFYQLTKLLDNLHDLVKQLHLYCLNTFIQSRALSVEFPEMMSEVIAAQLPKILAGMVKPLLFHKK
Method: Luciferase Reporter Assays for PR, GR, and MR
PC3, HeLa, and HEK293T cells were cultured using 5% CSS RPMI-1640, 5% CSS RPMI-1640 and 10% FBS DMEM media in 96-well plates for 24 h, respectively. For PR induction, PC3 (1 × 10^4 cells/well) were transfected with 50 ng pcDNA3-PRB (#89130, Addgene), 24 ng pGL4.36[luc2P MMTV Hygro] (Promega) and 5 ng Renilla using HG-TransGeneTM transfection reagent (#TG-10012, Genomeditech) for 4 h. For GR induction, Hela (1 × 10^4 cells/well) were transfected with 71 ng pCMV -GR11 (#89105, Addgene), 24 ng pGL4.36[luc2P MMTV Hygro] (Promega) and 5 ng Renilla using lip3000 transfection reagent (#L3000075, Thermofisher) for 24 h. For MR induction, HEK293T (1 × 10^4 cells/well) were transfected with 71 ng pCMV-MR gifted by Liu et al. 28, 24 ng of pGL4.36[luc2P MMTV Hygro] (Promega) and 5 ng Renilla using lip3000 transfec tion reagent for 24 h. For the antagonistic models, 10 nM /well progesterone for PC3 cells , 1 nM/well dexamethasone for HeLa, and 5 nM/well aldosterone for HEK293T cells were added to stimulate the cells. Meanwhile, each cell line was treated with a series concentration of compounds (0.4, 2, and 10 μM). For the agonistic models, the cells were directly treated with the compounds without any hormones. Endogenous hormones progesterone, dexamethasone, and aldosterone were considered as agonists for PR, GR, and MR, respectively. The luciferase activities were assessed using the Dual-Glo Luciferase system (#E1910, Promega). […]

[2] = system: U2OS, MCF-7, HepG2, HL60, H1299, A549, SW480, U87, Hela cell lines; test: MTT cell viability assay, various human cancer cell lines; settings: concentration as high as 50 μM; Enz except U2OS, M17-B15 except A549
Method: as §1, §2

PR antagonistic activity (PR)	Compound	colony formation of LNCaP cells (LNCaP cells)	cytotoxicity against GES-1 [1]	cell viability inhibition of various human cancer cell lines [2]
moderate	CNC(=O)c1ccc(N2C(=S)N(c3ccc(C#N)c(C(F)(F)F)c3)C(=O)C2(C)C)cc1F [Enz, enzalutamide, reference compound]	significant inhibitory activities	negligible cytotoxicity	mild to moderate inhibitory effects
moderate	CC(=O)Cc1nsc(NC(=O)c2cc(-c3cccc(C(F)(F)F)c3)oc2C)n1 [Compound M17-B15]	significant inhibitory activities	negligible cytotoxicity	mild to moderate inhibitory effects
